In article PMC10239507, “Development of allosteric and selective CDK2 inhibitors for contraception with negative cooperativity to cyclin binding” (Nature Communications, 2023):

What was measured:
Test in all cases: biochemical
[1] = molecular target: T1, 371 kinases (kinase named in each endpoint) (Homo sapiens, UniProt P36507); conditions: MEK2
T1 construct: purchased Reaction Biology

[2] = molecular target: T2, 371 kinases (kinase named in each endpoint) (Homo sapiens, UniProt Q8N4C8); conditions: MINK/MINK1
T2 construct: purchased Reaction Biology

[3] = molecular target: T3, 371 kinases (kinase named in each endpoint) (Homo sapiens, UniProt O14920); conditions: IKKb/IKBKB
T3 construct: purchased Reaction Biology

[4] = molecular target: T4, 371 kinases (kinase named in each endpoint) (Homo sapiens, UniProt P04629); conditions: TRKA
T4 construct: purchased Reaction Biology

[5] = molecular target: T5, 371 kinases (kinase named in each endpoint) (Homo sapiens, UniProt Q9P286); conditions: PAK5
T5 construct: purchased Reaction Biology

[6] = molecular target: T6, 371 kinases (kinase named in each endpoint) (Homo sapiens, UniProt O14965); conditions: AURORA A
T6 construct: purchased Reaction Biology

[7] = molecular target: T7, 371 kinases (kinase named in each endpoint) (Homo sapiens, UniProt O00238); conditions: ALK6/BMPR1B
T7 construct: purchased Reaction Biology

[8] = molecular target: T8, 371 kinases (kinase named in each endpoint) (Homo sapiens, UniProt P78362); conditions: SRPK2
T8 construct: purchased Reaction Biology

[9] = molecular target: T9, 371 kinases (kinase named in each endpoint) (Homo sapiens, UniProt P05771); conditions: PKCB1
T9 construct: purchased Reaction Biology

[10] = molecular target: T10, 371 kinases (kinase named in each endpoint) (Homo sapiens, UniProt P09769); conditions: FGR
T10 construct: purchased Reaction Biology

[11] = molecular target: T11, 371 kinases (kinase named in each endpoint) (Homo sapiens, UniProt Q96PF2); conditions: TSSK2
T11 construct: purchased Reaction Biology

[12] = molecular target: T12, 371 kinases (kinase named in each endpoint) (Homo sapiens, UniProt Q9UPZ9); conditions: LCK2/ICK
T12 construct: purchased Reaction Biology
T12 sequence (Q9UPZ9 whole entry): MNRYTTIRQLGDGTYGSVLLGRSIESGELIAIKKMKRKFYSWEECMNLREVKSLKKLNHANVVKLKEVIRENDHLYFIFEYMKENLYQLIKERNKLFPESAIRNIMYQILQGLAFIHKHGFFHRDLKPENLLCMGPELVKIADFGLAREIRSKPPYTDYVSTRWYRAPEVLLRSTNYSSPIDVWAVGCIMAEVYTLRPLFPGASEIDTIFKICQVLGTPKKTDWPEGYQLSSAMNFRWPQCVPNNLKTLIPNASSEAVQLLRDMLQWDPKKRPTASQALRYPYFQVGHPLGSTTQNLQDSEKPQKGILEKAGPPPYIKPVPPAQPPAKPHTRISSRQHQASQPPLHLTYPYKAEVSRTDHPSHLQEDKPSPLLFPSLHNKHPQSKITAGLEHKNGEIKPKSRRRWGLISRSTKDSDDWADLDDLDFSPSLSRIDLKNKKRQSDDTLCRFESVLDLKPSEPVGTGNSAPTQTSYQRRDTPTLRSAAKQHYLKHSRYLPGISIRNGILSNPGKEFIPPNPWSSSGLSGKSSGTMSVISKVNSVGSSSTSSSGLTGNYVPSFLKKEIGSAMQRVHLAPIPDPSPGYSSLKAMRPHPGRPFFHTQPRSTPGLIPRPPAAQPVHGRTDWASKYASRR

[13] = molecular target: T13, 371 kinases (kinase named in each endpoint) (Homo sapiens, UniProt O75716); conditions: STK16
T13 construct: purchased Reaction Biology
T13 sequence (O75716 whole entry): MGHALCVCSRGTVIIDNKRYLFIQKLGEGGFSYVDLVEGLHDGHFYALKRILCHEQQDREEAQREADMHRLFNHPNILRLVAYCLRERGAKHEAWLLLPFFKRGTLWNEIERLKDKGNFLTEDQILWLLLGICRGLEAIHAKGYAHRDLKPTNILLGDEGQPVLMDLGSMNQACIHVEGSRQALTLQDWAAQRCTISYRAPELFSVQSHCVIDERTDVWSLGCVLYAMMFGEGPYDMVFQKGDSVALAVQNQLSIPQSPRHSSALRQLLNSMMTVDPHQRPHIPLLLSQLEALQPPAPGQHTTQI

[14] = molecular target: T14, 371 kinases (kinase named in each endpoint) (Homo sapiens, UniProt Q6PHR2); conditions: ULK3
T14 construct: purchased Reaction Biology

[15] = molecular target: T15, 371 kinases (kinase named in each endpoint) (Homo sapiens, UniProt Q92918); conditions: HPK1/MAP4K1
T15 construct: purchased Reaction Biology

[16] = molecular target: T16, 371 kinases (kinase named in each endpoint) (Homo sapiens, UniProt P57078); conditions: RIPK4
T16 construct: purchased Reaction Biology

[17] = molecular target: T17, 371 kinases (kinase named in each endpoint) (Homo sapiens, UniProt Q9BXA6); conditions: SSTK/TSSK6
T17 construct: purchased Reaction Biology
T17 sequence (Q9BXA6 whole entry): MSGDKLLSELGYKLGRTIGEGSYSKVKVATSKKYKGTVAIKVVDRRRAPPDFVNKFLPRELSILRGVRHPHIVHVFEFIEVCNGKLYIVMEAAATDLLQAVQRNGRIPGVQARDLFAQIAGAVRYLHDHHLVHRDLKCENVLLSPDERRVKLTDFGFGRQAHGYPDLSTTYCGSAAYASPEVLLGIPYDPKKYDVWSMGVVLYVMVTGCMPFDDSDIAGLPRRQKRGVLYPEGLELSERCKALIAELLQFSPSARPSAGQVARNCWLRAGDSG

[18] = molecular target: T18, 371 kinases (kinase named in each endpoint) (Homo sapiens, UniProt Q9Y3S1); conditions: WNK2
T18 construct: purchased Reaction Biology

[19] = molecular target: T19, 371 kinases (kinase named in each endpoint) (Homo sapiens, UniProt Q9UPE1); conditions: MSSK1/STK23
T19 construct: purchased Reaction Biology

[20] = molecular target: T20, 371 kinases (kinase named in each endpoint) (Homo sapiens, UniProt Q5S007); conditions: LRRK2
T20 construct: purchased Reaction Biology

[21] = molecular target: T21, 371 kinases (kinase named in each endpoint) (Homo sapiens, UniProt Q13554); conditions: CAMK2B
T21 construct: purchased Reaction Biology

[22] = molecular target: T22, 371 kinases (kinase named in each endpoint) (Homo sapiens, UniProt Q00536); conditions: CDK16/CYCLIN Y (PCTAIRE)
T22 construct: purchased Reaction Biology
T22 sequence (Q00536 whole entry): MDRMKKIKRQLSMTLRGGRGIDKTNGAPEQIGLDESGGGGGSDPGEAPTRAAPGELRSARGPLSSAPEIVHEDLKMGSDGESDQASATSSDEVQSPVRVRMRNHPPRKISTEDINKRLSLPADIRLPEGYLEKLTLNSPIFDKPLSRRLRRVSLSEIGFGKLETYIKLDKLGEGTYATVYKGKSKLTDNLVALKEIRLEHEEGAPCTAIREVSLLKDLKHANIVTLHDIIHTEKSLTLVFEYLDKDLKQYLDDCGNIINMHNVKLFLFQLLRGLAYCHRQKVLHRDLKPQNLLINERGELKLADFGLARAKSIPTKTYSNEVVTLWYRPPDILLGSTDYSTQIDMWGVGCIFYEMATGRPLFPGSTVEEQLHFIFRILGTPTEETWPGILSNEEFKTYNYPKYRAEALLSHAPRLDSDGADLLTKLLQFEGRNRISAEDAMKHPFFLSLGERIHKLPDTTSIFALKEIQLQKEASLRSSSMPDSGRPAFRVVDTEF

[23] = molecular target: T23, 371 kinases (kinase named in each endpoint) (Homo sapiens, UniProt Q13555); conditions: CAMK2g
T23 construct: purchased Reaction Biology

[24] = molecular target: T24, 371 kinases (kinase named in each endpoint) (Homo sapiens, UniProt Q8IVH8); conditions: GLK/MAP4K3
T24 construct: purchased Reaction Biology

[25] = molecular target: T25, 371 kinases (kinase named in each endpoint) (Homo sapiens, UniProt Q07002); conditions: CDK18/CYCLIN Y (PCTK3)
T25 construct: purchased Reaction Biology
T25 sequence (Q07002 whole entry): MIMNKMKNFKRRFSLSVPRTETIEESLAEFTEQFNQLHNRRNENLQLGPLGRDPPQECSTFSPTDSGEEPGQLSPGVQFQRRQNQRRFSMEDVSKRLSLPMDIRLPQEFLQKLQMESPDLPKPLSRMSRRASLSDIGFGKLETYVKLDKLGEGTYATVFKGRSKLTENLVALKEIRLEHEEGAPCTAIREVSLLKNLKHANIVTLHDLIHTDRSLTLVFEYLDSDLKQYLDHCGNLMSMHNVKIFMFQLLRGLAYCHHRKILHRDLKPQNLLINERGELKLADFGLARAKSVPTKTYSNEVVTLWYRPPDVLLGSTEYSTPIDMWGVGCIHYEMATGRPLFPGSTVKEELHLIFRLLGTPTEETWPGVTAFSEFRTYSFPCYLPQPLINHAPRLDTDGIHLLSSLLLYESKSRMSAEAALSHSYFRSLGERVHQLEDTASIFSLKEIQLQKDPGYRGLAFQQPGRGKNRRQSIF

[26] = molecular target: T26, 371 kinases (kinase named in each endpoint) (Homo sapiens, UniProt O60285); conditions: ARK5/NUAK1
T26 construct: purchased Reaction Biology
T26 sequence (O60285 whole entry): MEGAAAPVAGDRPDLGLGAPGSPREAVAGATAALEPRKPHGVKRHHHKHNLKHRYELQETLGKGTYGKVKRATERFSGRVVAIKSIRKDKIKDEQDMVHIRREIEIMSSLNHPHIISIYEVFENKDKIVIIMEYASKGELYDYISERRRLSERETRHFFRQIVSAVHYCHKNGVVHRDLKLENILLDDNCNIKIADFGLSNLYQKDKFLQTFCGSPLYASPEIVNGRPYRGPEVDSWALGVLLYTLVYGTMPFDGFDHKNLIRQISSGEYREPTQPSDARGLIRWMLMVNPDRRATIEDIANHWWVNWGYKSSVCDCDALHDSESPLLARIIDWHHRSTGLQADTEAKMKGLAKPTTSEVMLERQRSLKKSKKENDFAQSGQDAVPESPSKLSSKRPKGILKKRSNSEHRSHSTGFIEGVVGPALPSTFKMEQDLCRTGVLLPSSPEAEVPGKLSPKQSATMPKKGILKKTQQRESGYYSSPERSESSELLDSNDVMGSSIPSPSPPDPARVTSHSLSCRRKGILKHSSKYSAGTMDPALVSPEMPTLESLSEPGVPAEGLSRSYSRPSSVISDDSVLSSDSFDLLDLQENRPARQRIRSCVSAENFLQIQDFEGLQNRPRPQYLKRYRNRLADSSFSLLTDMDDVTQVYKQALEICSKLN

[27] = molecular target: T27, 371 kinases (kinase named in each endpoint) (Homo sapiens, UniProt P22607); conditions: FGFR3
T27 construct: purchased Reaction Biology
T27 sequence (P22607 23-806): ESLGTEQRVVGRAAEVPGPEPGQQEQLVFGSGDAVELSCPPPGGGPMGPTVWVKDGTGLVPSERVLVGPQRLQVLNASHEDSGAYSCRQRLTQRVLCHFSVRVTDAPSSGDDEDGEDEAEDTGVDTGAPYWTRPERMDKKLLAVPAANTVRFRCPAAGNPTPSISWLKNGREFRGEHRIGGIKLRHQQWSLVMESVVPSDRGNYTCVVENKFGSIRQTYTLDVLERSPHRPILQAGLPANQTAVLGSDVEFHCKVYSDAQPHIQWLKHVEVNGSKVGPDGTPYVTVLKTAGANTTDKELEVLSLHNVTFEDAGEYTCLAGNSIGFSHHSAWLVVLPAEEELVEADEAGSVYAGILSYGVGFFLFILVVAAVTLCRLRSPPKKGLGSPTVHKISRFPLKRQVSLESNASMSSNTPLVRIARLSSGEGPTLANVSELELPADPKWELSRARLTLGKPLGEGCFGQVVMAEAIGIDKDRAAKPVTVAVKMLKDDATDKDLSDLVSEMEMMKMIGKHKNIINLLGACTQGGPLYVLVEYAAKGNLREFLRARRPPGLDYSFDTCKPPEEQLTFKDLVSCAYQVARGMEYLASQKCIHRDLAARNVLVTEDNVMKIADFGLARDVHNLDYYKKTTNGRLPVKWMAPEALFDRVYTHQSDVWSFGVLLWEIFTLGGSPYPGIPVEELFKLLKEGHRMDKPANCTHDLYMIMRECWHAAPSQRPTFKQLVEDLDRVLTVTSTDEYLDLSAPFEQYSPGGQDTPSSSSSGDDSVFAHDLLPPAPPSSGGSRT

[28] = molecular target: T28, 371 kinases (kinase named in each endpoint) (Homo sapiens, UniProt Q16512); conditions: PKN1/PRK1
T28 construct: purchased Reaction Biology
T28 sequence (Q16512 whole entry): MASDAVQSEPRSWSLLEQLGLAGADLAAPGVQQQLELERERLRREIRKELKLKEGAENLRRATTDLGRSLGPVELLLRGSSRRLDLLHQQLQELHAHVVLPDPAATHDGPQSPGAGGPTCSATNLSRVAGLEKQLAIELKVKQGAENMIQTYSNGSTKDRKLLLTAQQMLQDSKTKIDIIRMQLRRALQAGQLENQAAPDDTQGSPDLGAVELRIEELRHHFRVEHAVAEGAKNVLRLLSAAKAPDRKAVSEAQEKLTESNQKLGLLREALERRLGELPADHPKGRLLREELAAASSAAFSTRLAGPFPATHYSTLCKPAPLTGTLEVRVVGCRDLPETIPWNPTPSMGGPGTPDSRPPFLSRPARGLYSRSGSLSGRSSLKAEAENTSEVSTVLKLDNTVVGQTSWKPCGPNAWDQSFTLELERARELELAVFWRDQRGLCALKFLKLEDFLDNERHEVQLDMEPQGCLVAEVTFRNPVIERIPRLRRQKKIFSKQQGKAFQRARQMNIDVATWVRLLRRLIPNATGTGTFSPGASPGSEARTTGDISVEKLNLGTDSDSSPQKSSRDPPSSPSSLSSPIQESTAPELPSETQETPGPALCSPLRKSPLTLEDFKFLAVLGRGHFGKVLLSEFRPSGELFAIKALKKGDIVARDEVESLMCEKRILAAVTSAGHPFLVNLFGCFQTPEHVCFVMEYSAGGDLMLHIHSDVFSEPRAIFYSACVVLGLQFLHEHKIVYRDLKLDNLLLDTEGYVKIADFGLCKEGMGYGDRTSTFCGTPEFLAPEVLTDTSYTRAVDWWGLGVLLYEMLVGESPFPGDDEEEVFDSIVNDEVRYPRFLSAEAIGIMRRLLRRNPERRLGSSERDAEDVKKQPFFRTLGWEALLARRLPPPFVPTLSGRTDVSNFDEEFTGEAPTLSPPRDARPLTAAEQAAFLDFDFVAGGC

[29] = molecular target: T29, 371 kinases (kinase named in each endpoint) (Homo sapiens, UniProt P35968); conditions: KDR/VEGFR2
T29 construct: purchased Reaction Biology

[30] = molecular target: T30, 371 kinases (kinase named in each endpoint) (Homo sapiens, UniProt O14578); conditions: STK21/CIT
T30 construct: purchased Reaction Biology

[31] = molecular target: T31, 371 kinases (kinase named in each endpoint) (Homo sapiens, UniProt P15735); conditions: PHKG2
T31 construct: purchased Reaction Biology

[32] = molecular target: T32, 371 kinases (kinase named in each endpoint) (Homo sapiens, UniProt P22694); conditions: PKACB
T32 construct: purchased Reaction Biology

[33] = molecular target: T33, 371 kinases (kinase named in each endpoint) (Homo sapiens, UniProt Q16566); conditions: CAMK4
T33 construct: purchased Reaction Biology

[34] = molecular target: T34, 371 kinases (kinase named in each endpoint) (Homo sapiens, UniProt P08631); conditions: HCK
T34 construct: purchased Reaction Biology

[35] = molecular target: T35, 371 kinases (kinase named in each endpoint) (Homo sapiens, UniProt Q9HAZ1); conditions: CLK4
T35 construct: purchased Reaction Biology

[36] = molecular target: T36, 371 kinases (kinase named in each endpoint) (Homo sapiens, UniProt Q8TDX7); conditions: NEK7
T36 construct: purchased Reaction Biology

T1 sequence (P36507 whole entry): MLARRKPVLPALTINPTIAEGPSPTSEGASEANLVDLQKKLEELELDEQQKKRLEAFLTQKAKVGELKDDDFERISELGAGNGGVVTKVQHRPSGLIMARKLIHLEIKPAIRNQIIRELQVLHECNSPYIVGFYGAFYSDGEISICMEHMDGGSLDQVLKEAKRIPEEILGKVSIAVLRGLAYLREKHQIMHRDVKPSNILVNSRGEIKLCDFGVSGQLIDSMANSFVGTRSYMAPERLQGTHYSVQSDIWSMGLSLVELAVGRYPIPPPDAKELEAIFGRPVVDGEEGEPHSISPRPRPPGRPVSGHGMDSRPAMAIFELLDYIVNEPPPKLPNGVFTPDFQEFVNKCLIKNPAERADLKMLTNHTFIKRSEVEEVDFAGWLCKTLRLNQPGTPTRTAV

## O=C(O)c1cc(C(F)(F)F)ccc1NCCc1c[nH]c2cc(Br)ccc12 [Compound 5, 2-((2-(6-Bromo-1H-indol-3-yl)ethyl)amino)−5-(trifluoromethyl)benzoic Acid]
[1]
  activity at 10 µM: 110.4 ± 0.1%
[2]
  activity at 10 µM: 86.9 ± 0.4%
[3]
  activity at 10 µM: 82.1 ± 0.2%
[4]
  activity at 10 µM: 65.1 ± 1.6%
[5]
  activity at 10 µM: 101.2 ± 0.3%
[6]
  activity at 10 µM: 75.2 ± 1.8%
[7]
  activity at 10 µM: 96.7 ± 0.2%
[8]
  activity at 10 µM: 95.1%
[9]
  activity at 10 µM: 91%
[10]
  activity at 10 µM: 83.5 ± 1.1%
[11]
  activity at 10 µM: 79.9 ± 2.4%
[12]
  activity at 10 µM: 98.2 ± 1.3%
[13]
  activity at 10 µM: 80.4 ± 1.1%
[14]
  activity at 10 µM: 89.9 ± 1.4%
[15]
  activity at 10 µM: 77.2 ± 0.7%
[16]
  activity at 10 µM: 45.4 ± 0.9%
[17]
  activity at 10 µM: 102 ± 3%
[18]
  activity at 10 µM: 109.6 ± 0.2%
[19]
  activity at 10 µM: 69.7 ± 3%
[20]
  activity at 10 µM: 99.5 ± 0.1%
[21]
  activity at 10 µM: 62.2 ± 0.8%
[22]
  activity at 10 µM: 76.9 ± 0.5%
[23]
  activity at 10 µM: 74.4%
[24]
  activity at 10 µM: 97.8 ± 0.3%
[25]
  activity at 10 µM: 99 ± 0.1%
[26]
  activity at 10 µM: 75.5 ± 0.1%
[27]
  activity at 10 µM: 90.7 ± 1.5%
[28]
  activity at 10 µM: 123 ± 1.9%
[29]
  activity at 10 µM: 87.7 ± 1.6%
[30]
  activity at 10 µM: 102.1 ± 0.3%
[31]
  activity at 10 µM: 106.5 ± 0.1%
[32]
  activity at 10 µM: 93.4 ± 0.4%
[33]
  activity at 10 µM: 27.5 ± 6.5%
[34]
  activity at 10 µM: 86.2 ± 0.4%
[35]
  activity at 10 µM: 97.4 ± 0.8%
[36]
  activity at 10 µM: 80.2 ± 0.8%
